From patent publication US5502035A, “N-terminus modified analogs of LHRH” (Tap Holdings Inc., priority 1994, dated 1996)
Non-standard residues stand in square brackets, D forms with d. Residues, ends and D or L forms follow the SMILES beside them. Groups on a side chain read outwards from the residue. ξ: configuration not given here. *: point of attachment. Shikimoyl = O=C(C1=C[C@@H](O)[C@@H](O)[C@H](O)C1)*; ξTetrahydrofuran2carbonyl = O=C(C1CCCO1)*; dPhe(4-Cl) = N[C@H](Cc1ccc(Cl)cc1)C(=O)O; d2Nal = N[C@H](Cc1ccc2ccccc2c1)C(=O)O; Lys(iPr) = CC(C)NCCCC[C@H](N)C(=O)O; NMeY = CN[C@@H](Cc1ccc(O)cc1)C(=O)O; dCit = NC(=O)NCCC[C@@H](N)C(=O)O; d3Pal = N[C@H](Cc1cccnc1)C(=O)O; Salicyloyl = O=C(c1ccccc1O)*; Nicotinoyl = O=C(c1cccnc1)*; Ava = NCCCCC(=O)O; GABA = NCCCC(=O)O; azaGly = NNC(=O)O; βAla = NCCC(=O)O

The molecules below were run against T1, LHRH (Rattus norvegicus, UniProt P30969) (assay: in vitro test for LHRH antagonist potency (pA2)). Conditions: negative logarithm of the antagonist concentration required to shift the response curve produced by the agonist leuprolide to two-fold higher concentration.
T1 construct: endogenous in cells; host or cells: rat pituitary cells (own knowledge of the cited Haviv 1989 method)
T1 sequence (P30969 1-327): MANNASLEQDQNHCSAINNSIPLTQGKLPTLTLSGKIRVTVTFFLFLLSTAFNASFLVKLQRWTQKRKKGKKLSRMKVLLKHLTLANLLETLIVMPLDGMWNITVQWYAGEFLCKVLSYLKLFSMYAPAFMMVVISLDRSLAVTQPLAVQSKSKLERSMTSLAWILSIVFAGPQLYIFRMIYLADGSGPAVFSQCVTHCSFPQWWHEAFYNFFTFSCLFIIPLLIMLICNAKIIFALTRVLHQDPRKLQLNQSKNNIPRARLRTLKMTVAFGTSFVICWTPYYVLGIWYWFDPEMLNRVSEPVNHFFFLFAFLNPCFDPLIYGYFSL
Type: cell-based
Description: Representative compounds of the present invention were evaluated in an in vitro test for LHRH antagonist potency (pA2). The test employed the method detailed in F. Haviv, et al. J. Med. Chem., 32:2340-2344 (1989). The values of pA2 are the negative logarithms of the concentration of the particular antagonist test compound required to shift the response curve produced by the agonist leuprolide to two-fold higher concentration. (Leuprolide is the LHRH agonist having the structure 5-oxo-Pro^1 -His^2 -Trp^3 -Ser^4 -Tyr^5 -D-Leu^6 -Leu^7 -Arg^8 -Pro^9 -NHEt and is disclosed and claimed in U.S. Pat. No. 4,005,063.) Typically pA2 values of 9.5 or greater are indicative of good LHRH antagonist potency, with values of 10.0 or greater being preferred.

Row | Compound | Kb [nM]
1 | CC(C)C[C@H](NC(=O)[C@@H](CCCCNC(=O)c1cccnc1)NC(=O)[C@H](Cc1ccc(O)cc1)N(C)C(=O)[C@H](CO)NC(=O)[C@@H](Cc1cccnc1)NC(=O)[C@@H](Cc1ccc(Cl)cc1)NC(=O)[C@@H](Cc1ccc2ccccc2c1)NC(=O)CNC(=O)c1ccccc1O)C(=O)N[C@@H](CCCCNC(C)C)C(=O)N1CCC[C@H]1C(=O)N[C@H](C)C(N)=O [Example 2h, N-Salicyl-Gly-D2Nal-D4ClPhe-D3Pal-Ser-NMeTyr-DLys(N-epsilon-Nicotinyl) -Leu-Lys(N-epsilon-Isopropyl)-Pro-DAlaNH2] (Salicyloyl-G[d2Nal][dPhe(4-Cl)][d3Pal]S[NMeY][dK](Nicotinoyl)L[Lys(iPr)]P[dA]-NH2) | 0.01
2 | CC(C)C[C@H](NC(=O)[C@@H](CCCCNC(=O)c1cccnc1)NC(=O)[C@H](Cc1ccc(O)cc1)N(C)C(=O)[C@H](CO)NC(=O)[C@@H](Cc1cccnc1)NC(=O)[C@@H](Cc1ccc(Cl)cc1)NC(=O)[C@@H](Cc1ccc2ccccc2c1)NC(=O)CNC(=O)[C@@H]1CCCO1)C(=O)N[C@@H](CCCCNC(C)C)C(=O)N1CCC[C@H]1C(=O)N[C@H](C)C(N)=O [Example 4, N-(S)-Tetrahydrofur-2-oyl-Gly-D2Nal-D4ClPhe-D3Pal-Ser-NMeTyr-DLys(Nicotinyl) -Leu-Lys(N-epsilon-Isopropyl)-Pro-DAlaNH2] | 0.00794
3 | CC(C)C[C@H](NC(=O)[C@@H](CCCCNC(=O)c1cccnc1)NC(=O)[C@H](Cc1ccc(O)cc1)N(C)C(=O)[C@H](CO)NC(=O)[C@@H](Cc1cccnc1)NC(=O)[C@@H](Cc1ccc(Cl)cc1)NC(=O)[C@@H](Cc1ccc2ccccc2c1)NC(=O)CNC(=O)[C@H]1CCCO1)C(=O)N[C@@H](CCCCNC(C)C)C(=O)N1CCC[C@H]1C(=O)N[C@H](C)C(N)=O [Example 5, N-(R) Tetrahydrofur-2-oyl-Gly-D2Nal-D4ClPhe-D3Pal-Ser-NMeTyr-DLys(Nicotinyl) -Le u-Lys(N-epsilon-Isopropyl)-Pro-DAlaNH2] | 0.0214
4 | CC(C)C[C@H](NC(=O)[C@@H](CCCCNC(=O)c1cccnc1)NC(=O)[C@H](Cc1ccc(O)cc1)N(C)C(=O)[C@H](CO)NC(=O)[C@@H](Cc1cccnc1)NC(=O)[C@@H](Cc1ccc(Cl)cc1)NC(=O)[C@@H](Cc1ccc2ccccc2c1)NC(=O)CCNC(=O)c1cccnc1)C(=O)N[C@@H](CCCCNC(C)C)C(=O)N1CCC[C@H]1C(=O)N[C@H](C)C(N)=O [Example 6a, N-Nicotinyl-3Aminopropionyl-D2Nal-D4ClPhe-D3Pal-Ser-NMeTyr-DLys(N-epsilon- Nicotinyl) -Leu-Lys(N-epsilon-Isopropyl)-Pro-DAlaNH2] ({Nicotinoyl-βAla}-[d2Nal][dPhe(4-Cl)][d3Pal]S[NMeY][dK](Nicotinoyl)L[Lys(iPr)]P[dA]-NH2) | 0.00891
5 | CC(C)C[C@H](NC(=O)[C@@H](CCCCNC(=O)c1cccnc1)NC(=O)[C@H](Cc1ccc(O)cc1)N(C)C(=O)[C@H](CO)NC(=O)[C@@H](Cc1cccnc1)NC(=O)[C@@H](Cc1ccc(Cl)cc1)NC(=O)[C@@H](Cc1ccc2ccccc2c1)NC(=O)CCNC(=O)C1=C[C@@H](O)[C@@H](O)[C@H](O)C1)C(=O)N[C@@H](CCCCNC(C)C)C(=O)N1CCC[C@H]1C(=O)N[C@H](C)C(N)=O [Example 6b, N-Shikimyl-3Aminopropionyl-D2Nal-D4ClPhe-D3Pal-Ser-NMeTyr-DLys(N-epsilon-Nicotinyl) -Leu-Lys(N-epsilon-Isopropyl)-Pro-DAlaNH2] ({Shikimoyl-βAla}-[d2Nal][dPhe(4-Cl)][d3Pal]S[NMeY][dK](Nicotinoyl)L[Lys(iPr)]P[dA]-NH2) | 0.0158
6 | CC(C)C[C@H](NC(=O)[C@@H](CCCCNC(=O)c1cccnc1)NC(=O)[C@H](Cc1ccc(O)cc1)N(C)C(=O)[C@H](CO)NC(=O)[C@@H](Cc1cccnc1)NC(=O)[C@@H](Cc1ccc(Cl)cc1)NC(=O)[C@@H](Cc1ccc2ccccc2c1)NC(=O)CCCNC(=O)c1cccnc1)C(=O)N[C@@H](CCCCNC(C)C)C(=O)N1CCC[C@H]1C(=O)N[C@H](C)C(N)=O [Example 6c, N-Nicotinyl-4Aminobutyryl-D2Nal-D4ClPhe-D3Pal-Ser-NMeTyr-DLys(N-epsilon-Nicotinyl) -Leu-Lys(N-epsilon-Isopropyl)-Pro-DAlaNH2] ({Nicotinoyl-GABA}-[d2Nal][dPhe(4-Cl)][d3Pal]S[NMeY][dK](Nicotinoyl)L[Lys(iPr)]P[dA]-NH2) | 0.0224
7 | CC(C)C[C@H](NC(=O)[C@@H](CCCCNC(=O)c1cccnc1)NC(=O)[C@H](Cc1ccc(O)cc1)N(C)C(=O)[C@H](CO)NC(=O)[C@@H](Cc1cccnc1)NC(=O)[C@@H](Cc1ccc(Cl)cc1)NC(=O)[C@@H](Cc1ccc2ccccc2c1)NC(=O)CCCNC(=O)C1=C[C@@H](O)[C@@H](O)[C@H](O)C1)C(=O)N[C@@H](CCCCNC(C)C)C(=O)N1CCC[C@H]1C(=O)N[C@H](C)C(N)=O [Example 6d, N-Shikimyl-4-Aminobutyryl-D2Nal-D4ClPhe-D3Pal-Ser-NMeTyr-DLys(N-epsilon-Nicotinyl) -Leu-Lys(N-epsilon-Isopropyl)-Pro-DAlaNH2] ({Shikimoyl-GABA}-[d2Nal][dPhe(4-Cl)][d3Pal]S[NMeY][dK](Nicotinoyl)L[Lys(iPr)]P[dA]-NH2) | 0.0126
8 | CC(C)C[C@H](NC(=O)[C@@H](CCCCNC(=O)c1cccnc1)NC(=O)[C@H](Cc1ccc(O)cc1)N(C)C(=O)[C@H](CO)NC(=O)[C@@H](Cc1cccnc1)NC(=O)[C@@H](Cc1ccc(Cl)cc1)NC(=O)[C@@H](Cc1ccc2ccccc2c1)NC(=O)CCCCNC(=O)C1=C[C@@H](O)[C@@H](O)[C@H](O)C1)C(=O)N[C@@H](CCCCNC(C)C)C(=O)N1CCC[C@H]1C(=O)N[C@H](C)C(N)=O [Example 6f, N-Shikimyl-5Aminovaleryl-D2Nal-D4ClPhe-D3Pal-Ser-NMeTyr-DLys(N-epsilon-Nicotinyl) -Leu-Lys(N-epsilon-Isopropyl)-Pro-DAlaNH2] ({Shikimoyl-Ava}-[d2Nal][dPhe(4-Cl)][d3Pal]S[NMeY][dK](Nicotinoyl)L[Lys(iPr)]P[dA]-NH2) | 0.0257
9 | CC(C)C[C@H](NC(=O)[C@@H](CCCCNC(=O)c1cccnc1)NC(=O)[C@H](Cc1ccc(O)cc1)N(C)C(=O)[C@H](CO)NC(=O)[C@@H](Cc1cccnc1)NC(=O)[C@@H](Cc1ccc(Cl)cc1)NC(=O)[C@@H](Cc1ccc2ccccc2c1)NC(=O)[C@@H](CO)NC(=O)C1=C[C@@H](O)[C@@H](O)[C@H](O)C1)C(=O)N[C@@H](CCCCNC(C)C)C(=O)N1CCC[C@H]1C(=O)N[C@H](C)C(N)=O [Example 7, N-Shikimyl-DSer-D2Nal-D4ClPhe-D3Pal-Ser-NMeTyr-DLys(N-epsilon-Nicotinyl) -Leu-Lys(N-epsilon-Isopropyl)-Pro-DAlaNH2] (Shikimoyl-[dS][d2Nal][dPhe(4-Cl)][d3Pal]S[NMeY][dK](Nicotinoyl)L[Lys(iPr)]P[dA]-NH2) | 0.0263
10 | CC(C)C[C@H](NC(=O)[C@@H](CCCCNC(=O)CNC(=O)c1cccnc1)NC(=O)[C@H](Cc1ccc(O)cc1)N(C)C(=O)[C@H](CO)NC(=O)[C@@H](Cc1cccnc1)NC(=O)[C@@H](Cc1ccc(Cl)cc1)NC(=O)[C@@H](Cc1ccc2ccccc2c1)NC(=O)CNC(=O)c1cccnc1)C(=O)N[C@@H](CCCCNC(C)C)C(=O)N1CCC[C@H]1C(=O)N[C@H](C)C(N)=O [Example 8, N-Nicotinyl-Gly-D2Nal-D4ClPhe-D3Pal-Ser-NMeTyr-DLys(Gly-Nicotinyl)-Leu-Lys (N-epsilon-Isopropyl)-Pro-DAlaNH2] (Nicotinoyl-G[d2Nal][dPhe(4-Cl)][d3Pal]S[NMeY][dK]([Gly-Nicotinoyl])L[Lys(iPr)]P[dA]-NH2) | 0.0204
11 | CC(C)C[C@H](NC(=O)[C@@H](CCCCNC(=O)NNC(=O)c1cccnc1)NC(=O)[C@H](Cc1ccc(O)cc1)N(C)C(=O)[C@H](CO)NC(=O)[C@@H](Cc1cccnc1)NC(=O)[C@@H](Cc1ccc(Cl)cc1)NC(=O)[C@@H](Cc1ccc2ccccc2c1)NC(=O)CNC(=O)c1cccnc1)C(=O)N[C@@H](CCCCNC(C)C)C(=O)N1CCC[C@H]1C(=O)N[C@H](C)C(N)=O [Example 9, N-Nicotinyl-Gly-D2Nal-D4ClPhe-D3Pal-Ser-NMeTyr-DLys(Azagly-Nicotinyl)-Leu-Lys(N-epsilon-Isopropyl) -Pro-DAlaNH2] (Nicotinoyl-G[d2Nal][dPhe(4-Cl)][d3Pal]S[NMeY][dK]([azaGly-Nicotinoyl])L[Lys(iPr)]P[dA]-NH2) | 0.0347
12 | CC(C)C[C@H](NC(=O)[C@@H](CCCNC(N)=O)NC(=O)[C@H](Cc1ccc(O)cc1)N(C)C(=O)[C@H](CO)NC(=O)[C@@H](Cc1cccnc1)NC(=O)[C@@H](Cc1ccc(Cl)cc1)NC(=O)[C@@H](Cc1ccc2ccccc2c1)NC(=O)CNC(=O)C1CCCO1)C(=O)N[C@@H](CCCNC(=N)N)C(=O)N1CCC[C@H]1C(=O)N[C@H](C)C(N)=O (stereo partly drawn) [Example 13a, N-(R,S)-Tetrahydro-Fur-2-oyl-Gly-D2Nal-D4ClPhe-D3Pal-Ser-NMeTyr-DCit-Leu-Arg-Pro-DAlaNH2] (ξTetrahydrofuran2carbonyl-G[d2Nal][dPhe(4-Cl)][d3Pal]S[NMeY][dCit]LRP[dA]-NH2) | 0.00447
